Results: PMC4979471 (Cell Death Discovery, 2015)
Read-outs that look alike come from different tables or passages of the source.

Assays:
Experiment in all cases: Kinase selectivity, P33-radiolabeled assay
Assay type in all cases: biochemical
MRCKb/CDC42BPB = molecular target: T1, MRCKb/CDC42BPB (Homo sapiens, UniProt Q9Y5S2); settings: 10 μM ATP
T1 construct: purchased Reaction Biology Corp
Procedure: (§1) The compound was tested at a single dose in duplicate at 10 μM. Reactions were carried out at 10 μM ATP. Data are reported as % enzyme activity (relative to DMSO controls). The full data set is shown in the Supplementary Table I.

HPK1/MAP4K1 = molecular target: T2, HPK1/MAP4K1 (Homo sapiens, UniProt Q92918); settings: 10 μM ATP
T2 construct: purchased Reaction Biology Corp
T2 sequence (Q92918 whole entry): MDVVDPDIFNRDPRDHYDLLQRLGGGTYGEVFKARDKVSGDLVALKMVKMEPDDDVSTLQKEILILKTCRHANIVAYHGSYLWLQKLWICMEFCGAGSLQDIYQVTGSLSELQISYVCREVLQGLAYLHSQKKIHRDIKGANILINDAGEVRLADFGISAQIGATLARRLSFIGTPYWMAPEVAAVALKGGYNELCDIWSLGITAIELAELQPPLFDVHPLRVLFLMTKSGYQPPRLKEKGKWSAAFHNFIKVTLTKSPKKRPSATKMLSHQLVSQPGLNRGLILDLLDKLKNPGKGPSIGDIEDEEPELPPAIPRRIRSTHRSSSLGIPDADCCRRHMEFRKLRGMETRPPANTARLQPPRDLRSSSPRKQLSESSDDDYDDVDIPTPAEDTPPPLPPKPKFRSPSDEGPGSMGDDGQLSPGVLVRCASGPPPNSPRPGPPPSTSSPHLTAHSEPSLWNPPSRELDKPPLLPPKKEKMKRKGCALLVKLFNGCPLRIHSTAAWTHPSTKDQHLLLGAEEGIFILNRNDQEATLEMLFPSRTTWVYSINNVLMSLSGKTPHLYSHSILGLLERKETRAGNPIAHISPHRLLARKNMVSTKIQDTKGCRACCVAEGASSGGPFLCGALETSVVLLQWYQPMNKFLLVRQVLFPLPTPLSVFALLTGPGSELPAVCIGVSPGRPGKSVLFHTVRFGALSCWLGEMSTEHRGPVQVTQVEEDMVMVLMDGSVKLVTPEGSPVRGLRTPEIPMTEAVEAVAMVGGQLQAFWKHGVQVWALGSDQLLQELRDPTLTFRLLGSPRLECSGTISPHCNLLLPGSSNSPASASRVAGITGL
Procedure: as §1

PDGFRb = molecular target: T3, PDGFRb (Homo sapiens, UniProt P09619); settings: 10 μM ATP
T3 construct: purchased Reaction Biology Corp
T3 sequence (P09619 33-1106): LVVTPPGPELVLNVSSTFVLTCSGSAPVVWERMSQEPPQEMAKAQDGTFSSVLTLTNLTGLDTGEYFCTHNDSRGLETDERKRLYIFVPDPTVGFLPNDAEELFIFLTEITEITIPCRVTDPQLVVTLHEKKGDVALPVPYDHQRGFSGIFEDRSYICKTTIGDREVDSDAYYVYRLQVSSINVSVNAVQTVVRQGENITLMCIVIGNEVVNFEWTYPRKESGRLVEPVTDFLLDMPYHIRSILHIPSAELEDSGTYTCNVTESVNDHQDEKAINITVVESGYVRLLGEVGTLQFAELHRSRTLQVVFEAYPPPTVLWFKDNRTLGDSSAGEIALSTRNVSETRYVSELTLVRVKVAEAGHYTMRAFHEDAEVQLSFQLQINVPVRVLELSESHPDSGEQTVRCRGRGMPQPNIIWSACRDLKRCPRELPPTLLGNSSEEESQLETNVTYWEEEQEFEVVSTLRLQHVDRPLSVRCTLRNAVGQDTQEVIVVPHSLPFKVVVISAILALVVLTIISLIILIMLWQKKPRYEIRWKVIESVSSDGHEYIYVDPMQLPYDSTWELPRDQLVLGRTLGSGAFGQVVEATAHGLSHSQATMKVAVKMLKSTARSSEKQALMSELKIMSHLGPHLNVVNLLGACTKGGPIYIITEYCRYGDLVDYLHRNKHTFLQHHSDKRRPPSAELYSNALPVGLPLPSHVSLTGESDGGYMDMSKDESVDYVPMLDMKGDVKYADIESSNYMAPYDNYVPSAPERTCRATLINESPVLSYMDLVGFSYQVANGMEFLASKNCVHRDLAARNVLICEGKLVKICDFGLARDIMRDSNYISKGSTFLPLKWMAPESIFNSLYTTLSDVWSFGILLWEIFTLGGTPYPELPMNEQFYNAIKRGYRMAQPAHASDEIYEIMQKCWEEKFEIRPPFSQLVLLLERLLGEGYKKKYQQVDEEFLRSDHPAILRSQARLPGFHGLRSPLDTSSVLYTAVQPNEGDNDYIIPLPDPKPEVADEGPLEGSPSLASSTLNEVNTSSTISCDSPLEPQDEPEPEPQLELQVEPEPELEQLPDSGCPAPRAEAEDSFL
Procedure: as §1

DMPK = molecular target: T4, DMPK (Homo sapiens, UniProt Q09013); settings: 10 μM ATP
T4 construct: purchased Reaction Biology Corp
T4 sequence (Q09013 1-629): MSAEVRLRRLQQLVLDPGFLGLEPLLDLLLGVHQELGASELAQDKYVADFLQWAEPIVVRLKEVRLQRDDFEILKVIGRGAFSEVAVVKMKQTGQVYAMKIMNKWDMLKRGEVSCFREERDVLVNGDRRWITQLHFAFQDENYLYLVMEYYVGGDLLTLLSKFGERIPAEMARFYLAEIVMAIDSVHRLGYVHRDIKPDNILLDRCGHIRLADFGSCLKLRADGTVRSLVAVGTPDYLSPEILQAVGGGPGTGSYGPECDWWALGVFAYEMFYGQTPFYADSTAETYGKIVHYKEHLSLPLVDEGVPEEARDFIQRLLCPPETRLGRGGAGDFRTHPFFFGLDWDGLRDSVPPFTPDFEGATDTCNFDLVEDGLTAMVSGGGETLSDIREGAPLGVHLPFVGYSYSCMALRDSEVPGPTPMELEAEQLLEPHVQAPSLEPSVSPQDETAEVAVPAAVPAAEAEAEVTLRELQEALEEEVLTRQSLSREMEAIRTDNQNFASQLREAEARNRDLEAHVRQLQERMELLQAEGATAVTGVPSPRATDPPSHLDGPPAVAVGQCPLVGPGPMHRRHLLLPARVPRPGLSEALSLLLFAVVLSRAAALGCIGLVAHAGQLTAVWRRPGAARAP
Procedure: as §1

IRR/INSRR = molecular target: T5, IRR/INSRR (Homo sapiens, UniProt P14616); settings: 10 μM ATP
T5 construct: purchased Reaction Biology Corp
T5 sequence (P14616 27-1297): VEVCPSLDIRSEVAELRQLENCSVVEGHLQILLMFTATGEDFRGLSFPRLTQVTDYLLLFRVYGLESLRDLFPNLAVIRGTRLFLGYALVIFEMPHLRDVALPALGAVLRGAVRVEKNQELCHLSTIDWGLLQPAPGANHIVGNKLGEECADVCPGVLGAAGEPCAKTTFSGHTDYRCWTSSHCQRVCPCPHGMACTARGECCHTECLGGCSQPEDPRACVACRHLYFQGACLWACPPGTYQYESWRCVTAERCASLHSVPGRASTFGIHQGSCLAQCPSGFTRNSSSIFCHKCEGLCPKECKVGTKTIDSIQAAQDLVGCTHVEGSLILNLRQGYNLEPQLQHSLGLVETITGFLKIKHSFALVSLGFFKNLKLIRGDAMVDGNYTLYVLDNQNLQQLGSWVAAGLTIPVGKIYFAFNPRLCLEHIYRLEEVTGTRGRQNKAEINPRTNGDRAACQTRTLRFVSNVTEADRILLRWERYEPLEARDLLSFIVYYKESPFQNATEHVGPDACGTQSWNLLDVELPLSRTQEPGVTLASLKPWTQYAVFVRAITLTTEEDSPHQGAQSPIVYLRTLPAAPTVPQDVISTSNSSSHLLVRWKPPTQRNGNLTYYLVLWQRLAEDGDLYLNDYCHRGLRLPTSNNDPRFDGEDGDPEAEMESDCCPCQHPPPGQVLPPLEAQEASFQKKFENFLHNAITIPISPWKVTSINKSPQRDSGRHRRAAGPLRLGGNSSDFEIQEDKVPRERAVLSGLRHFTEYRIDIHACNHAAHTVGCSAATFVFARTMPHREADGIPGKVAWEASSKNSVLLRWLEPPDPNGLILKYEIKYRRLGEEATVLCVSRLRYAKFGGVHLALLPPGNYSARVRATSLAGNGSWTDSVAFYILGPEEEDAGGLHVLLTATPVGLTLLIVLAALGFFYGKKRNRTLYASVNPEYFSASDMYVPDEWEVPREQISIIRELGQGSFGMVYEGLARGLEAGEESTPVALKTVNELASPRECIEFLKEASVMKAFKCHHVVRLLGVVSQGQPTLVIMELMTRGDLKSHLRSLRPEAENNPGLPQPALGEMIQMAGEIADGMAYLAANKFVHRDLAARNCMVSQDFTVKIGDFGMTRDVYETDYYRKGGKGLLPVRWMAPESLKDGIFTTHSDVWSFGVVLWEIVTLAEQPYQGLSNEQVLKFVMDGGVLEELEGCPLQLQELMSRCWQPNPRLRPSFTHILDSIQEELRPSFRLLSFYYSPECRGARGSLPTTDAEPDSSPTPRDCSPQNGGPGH
Procedure: as §1

MEK2 = molecular target: T6, MEK2 (Homo sapiens, UniProt P36507)
T6 construct: purchased Reaction Biology Corp
Procedure: as §1

SGK1 = molecular target: T7, SGK1 (Homo sapiens, UniProt O00141); settings: 10 μM ATP
T7 construct: purchased Reaction Biology Corp
T7 sequence (O00141 1-431): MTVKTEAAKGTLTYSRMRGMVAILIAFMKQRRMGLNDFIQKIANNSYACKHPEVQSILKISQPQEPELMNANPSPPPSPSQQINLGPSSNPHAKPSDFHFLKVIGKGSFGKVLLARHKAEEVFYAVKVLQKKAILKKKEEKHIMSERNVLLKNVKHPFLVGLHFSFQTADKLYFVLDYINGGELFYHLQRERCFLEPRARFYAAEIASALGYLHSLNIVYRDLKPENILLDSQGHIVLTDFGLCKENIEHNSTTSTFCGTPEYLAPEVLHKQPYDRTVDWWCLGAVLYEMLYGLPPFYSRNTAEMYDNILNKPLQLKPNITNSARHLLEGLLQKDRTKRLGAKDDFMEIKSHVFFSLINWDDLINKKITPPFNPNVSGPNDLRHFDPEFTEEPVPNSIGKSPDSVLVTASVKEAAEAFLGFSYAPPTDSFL
Procedure: as §1

SYK = molecular target: T8, SYK (Homo sapiens, UniProt P43405); settings: 10 μM ATP
T8 construct: purchased Reaction Biology Corp
Procedure: as §1

HIPK4 = molecular target: T9, HIPK4 (Homo sapiens, UniProt Q8NE63); settings: 10 μM ATP
T9 construct: purchased Reaction Biology Corp
T9 sequence (Q8NE63 1-616): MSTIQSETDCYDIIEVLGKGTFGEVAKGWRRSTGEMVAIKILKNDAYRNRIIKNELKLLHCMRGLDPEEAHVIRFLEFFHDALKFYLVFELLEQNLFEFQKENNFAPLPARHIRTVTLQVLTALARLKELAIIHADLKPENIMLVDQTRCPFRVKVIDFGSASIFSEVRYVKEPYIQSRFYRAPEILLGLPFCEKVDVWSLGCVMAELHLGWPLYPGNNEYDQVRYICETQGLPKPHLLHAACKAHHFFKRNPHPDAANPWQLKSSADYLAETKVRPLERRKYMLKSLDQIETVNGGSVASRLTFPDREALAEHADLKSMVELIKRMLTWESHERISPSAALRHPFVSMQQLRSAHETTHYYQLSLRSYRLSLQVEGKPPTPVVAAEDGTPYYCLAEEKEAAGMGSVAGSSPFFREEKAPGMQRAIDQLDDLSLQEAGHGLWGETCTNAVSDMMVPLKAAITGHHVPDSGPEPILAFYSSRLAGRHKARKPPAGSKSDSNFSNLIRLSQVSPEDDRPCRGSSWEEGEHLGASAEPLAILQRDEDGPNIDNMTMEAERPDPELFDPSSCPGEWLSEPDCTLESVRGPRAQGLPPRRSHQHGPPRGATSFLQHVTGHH
Procedure: as §1

WNK3 = molecular target: T10, WNK3 (Homo sapiens, UniProt Q9BYP7); settings: 10 μM ATP
T10 construct: purchased Reaction Biology Corp
T10 sequence (Q9BYP7 whole entry): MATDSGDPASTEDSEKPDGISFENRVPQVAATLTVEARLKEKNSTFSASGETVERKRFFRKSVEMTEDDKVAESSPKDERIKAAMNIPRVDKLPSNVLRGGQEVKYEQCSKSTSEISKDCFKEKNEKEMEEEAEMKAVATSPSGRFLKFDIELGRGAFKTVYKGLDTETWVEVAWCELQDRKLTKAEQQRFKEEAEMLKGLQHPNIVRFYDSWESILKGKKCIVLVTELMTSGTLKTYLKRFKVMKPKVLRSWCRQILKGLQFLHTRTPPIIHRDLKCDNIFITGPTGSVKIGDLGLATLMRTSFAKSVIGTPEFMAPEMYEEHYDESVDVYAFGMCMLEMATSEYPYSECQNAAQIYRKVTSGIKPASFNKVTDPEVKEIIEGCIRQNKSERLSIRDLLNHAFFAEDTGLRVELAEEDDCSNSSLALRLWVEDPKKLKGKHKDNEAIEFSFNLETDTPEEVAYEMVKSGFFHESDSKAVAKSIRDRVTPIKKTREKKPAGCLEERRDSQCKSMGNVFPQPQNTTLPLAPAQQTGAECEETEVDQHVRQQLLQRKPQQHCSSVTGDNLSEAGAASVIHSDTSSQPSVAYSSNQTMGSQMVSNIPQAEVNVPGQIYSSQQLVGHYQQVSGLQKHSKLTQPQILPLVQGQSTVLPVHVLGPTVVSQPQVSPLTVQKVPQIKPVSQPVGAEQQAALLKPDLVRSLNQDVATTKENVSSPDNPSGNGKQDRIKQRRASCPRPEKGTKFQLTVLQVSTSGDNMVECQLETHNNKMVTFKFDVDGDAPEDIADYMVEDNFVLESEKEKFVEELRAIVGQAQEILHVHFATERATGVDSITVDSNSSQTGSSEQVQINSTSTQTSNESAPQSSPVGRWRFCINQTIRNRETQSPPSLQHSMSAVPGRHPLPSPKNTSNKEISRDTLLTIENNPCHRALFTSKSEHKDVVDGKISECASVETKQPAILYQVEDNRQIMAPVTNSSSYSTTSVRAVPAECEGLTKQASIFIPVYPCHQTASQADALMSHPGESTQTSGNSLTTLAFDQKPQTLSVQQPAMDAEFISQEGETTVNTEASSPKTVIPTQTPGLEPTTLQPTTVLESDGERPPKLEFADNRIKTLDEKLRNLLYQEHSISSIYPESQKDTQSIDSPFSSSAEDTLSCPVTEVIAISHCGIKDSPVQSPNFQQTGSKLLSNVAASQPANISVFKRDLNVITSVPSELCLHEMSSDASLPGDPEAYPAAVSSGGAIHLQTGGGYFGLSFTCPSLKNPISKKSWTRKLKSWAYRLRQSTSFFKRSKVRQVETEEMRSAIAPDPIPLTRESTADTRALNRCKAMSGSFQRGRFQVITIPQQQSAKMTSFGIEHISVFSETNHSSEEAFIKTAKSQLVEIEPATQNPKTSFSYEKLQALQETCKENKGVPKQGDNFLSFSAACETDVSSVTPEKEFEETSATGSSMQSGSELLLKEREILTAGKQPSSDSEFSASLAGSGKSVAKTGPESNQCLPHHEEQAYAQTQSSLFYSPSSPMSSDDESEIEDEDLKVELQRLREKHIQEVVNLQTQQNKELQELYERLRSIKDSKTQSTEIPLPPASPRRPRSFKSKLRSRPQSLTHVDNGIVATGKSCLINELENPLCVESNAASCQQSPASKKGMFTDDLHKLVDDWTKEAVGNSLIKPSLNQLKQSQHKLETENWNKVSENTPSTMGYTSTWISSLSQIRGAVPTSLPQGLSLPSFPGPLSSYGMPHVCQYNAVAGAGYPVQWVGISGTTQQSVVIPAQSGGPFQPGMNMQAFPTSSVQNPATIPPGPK
Procedure: as §1

[1] = read-out: % Enzyme Activity (relative to DMSO controls) AVG
[2] = read-out: % Enzyme Activity (relative to DMSO controls) Data 1
[3] = read-out: % Enzyme Activity (relative to DMSO controls) Data 2

CC(C)(C)C(=O)N1N=CC[C@H]1c1ccccc1 [GSK′963]
remaining activity at 10 µM (MRCKb/CDC42BPB; [1]): 106%
remaining activity at 10 µM (MRCKb/CDC42BPB; [2]): 109%
remaining activity at 10 µM (MRCKb/CDC42BPB; [3]): 102%
remaining activity at 10 µM (HPK1/MAP4K1; [1]): 100%
remaining activity at 10 µM (HPK1/MAP4K1; [2]): 100%
remaining activity at 10 µM (HPK1/MAP4K1; [3]): 101%
remaining activity at 10 µM (PDGFRb; [1]): 104%
remaining activity at 10 µM (PDGFRb; [2]): 101%
remaining activity at 10 µM (PDGFRb; [3]): 107%
remaining activity at 10 µM (DMPK; [1]): 99.2%
remaining activity at 10 µM (DMPK; [2]): 97.5%
remaining activity at 10 µM (DMPK; [3]): 101%
remaining activity at 10 µM (IRR/INSRR; [1]): 75.3%
remaining activity at 10 µM (IRR/INSRR; [2]): 72.8%
remaining activity at 10 µM (IRR/INSRR; [3]): 77.7%
remaining activity at 10 µM (MEK2; 10 uM, 10 μM ATP, read-out: % Enzyme Activity (relative to DMSO controls) AVG): 102%
remaining activity at 10 µM (MEK2; 10 uM, 10 μM ATP, read-out: % Enzyme Activity (relative to DMSO controls) Data 2): 103%
remaining activity at 10 µM (MEK2; [2]): 101%
remaining activity at 10 µM (SGK1; [1]): 99.7%
remaining activity at 10 µM (SGK1; [2]): 99%
remaining activity at 10 µM (SGK1; [3]): 100%
remaining activity at 10 µM (SYK; [1]): 102%
remaining activity at 10 µM (SYK; [2]): 106%
remaining activity at 10 µM (SYK; [3]): 97.6%
remaining activity at 10 µM (HIPK4; [1]): 99.5%
remaining activity at 10 µM (HIPK4; [2]): 96.7%
remaining activity at 10 µM (HIPK4; [3]): 102%
remaining activity at 10 µM (WNK3; [1]): 100%
remaining activity at 10 µM (WNK3; [2]): 97.5%
remaining activity at 10 µM (WNK3; [3]): 103%
